What was measured:
SW620 [1] = assay: cell viability relative to vehicle (resazurin, 96 h); higher = more viable
Description: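 SW620 WT or MTHFD2-/- cells were treated for 96 h with a compound dilution series (log10 M) in RPMI with normal or dialysed FBS. Viability was read by resazurin and is given as % of vehicle.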

SW620 [2] = assay: EC50 for viability (resazurin, 96 h)
SW620 MTHFD2-/- = assay: EC50 for viability (resazurin, 96 h); conditions: RPMI+GlutaMAX (5% dFBS, 1% P/S); metabolite supplement: Hypoxanthine + Formate
SW620 MTHFD2 -/- = assay: EC50 for viability (resazurin, 96 h); conditions: RPMI+GlutaMAX (5% dFBS, 1% P/S)
SW620 WT = assay: EC50 for viability (resazurin, 96 h); conditions: RPMI+GlutaMAX (5% dFBS, 1% P/S)

Cc1c(N2CCN(C)[C@@H](C)C2)ccc2c3c(c(=O)oc12)CN(C(=O)c1ccc(NS(C)(=O)=O)c(OC(F)(F)F)c1)CC3
Conditions	EC50 for viability [nM]	cell viability [%]
SW620 [1], log10 compound concentration (M): -7.86273, supplement / serum: RPMI + Normal FBS, base medium: RPMI-1640	–	73
SW620 [1], log10 compound concentration (M): -8.33985, supplement / serum: 50μM Hypoxanthine, base medium: RPMI + dialysed FBS	–	84.3
SW620 [1], log10 compound concentration (M): -8.33985, supplement / serum: 50μM Thymidine + 50μM Hypoxanthine, base medium: RPMI + dialysed FBS	–	76.1
SW620 [1], log10 compound concentration (M): -8.33985, supplement / serum: 50μMThymidine, base medium: RPMI + dialysed FBS	–	78.4
SW620 [1], log10 compound concentration (M): -8.33985, supplement / serum: No metabolite, base medium: RPMI + dialysed FBS	–	86.2
SW620 [1], log10 compound concentration (M): -8.33985, supplement / serum: RPMI + Dialyzed FBS + 50μM Hypoxanthine, base medium: RPMI-1640	–	84.3
SW620 [1], log10 compound concentration (M): -8.33985, supplement / serum: RPMI + Dialyzed FBS, base medium: RPMI-1640	–	86.2
SW620 [1], log10 compound concentration (M): -8.33985, supplement / serum: RPMI + Normal FBS, base medium: RPMI-1640	–	92
SW620 [1], log10 compound concentration (M): -8.81697, supplement / serum: 50μM Hypoxanthine, base medium: RPMI + dialysed FBS	–	83.9
SW620 [1], log10 compound concentration (M): -8.81697, supplement / serum: 50μM Thymidine + 50μM Hypoxanthine, base medium: RPMI + dialysed FBS	–	69.4
SW620 [1], log10 compound concentration (M): -8.81697, supplement / serum: 50μMThymidine, base medium: RPMI + dialysed FBS	–	77.4
SW620 [1], log10 compound concentration (M): -8.81697, supplement / serum: No metabolite, base medium: RPMI + dialysed FBS	–	70.8
SW620 [1], log10 compound concentration (M): -8.81697, supplement / serum: RPMI + Dialyzed FBS + 50μM Hypoxanthine, base medium: RPMI-1640	–	83.9
SW620 [1], log10 compound concentration (M): -8.81697, supplement / serum: RPMI + Dialyzed FBS, base medium: RPMI-1640	–	70.8
SW620 [1], log10 compound concentration (M): -8.81697, supplement / serum: RPMI + Normal FBS, base medium: RPMI-1640	–	75.5
SW620 [1], log10 compound concentration (M): -9.29409, supplement / serum: 50μM Hypoxanthine, base medium: RPMI + dialysed FBS	–	77.29
SW620 [1], log10 compound concentration (M): -9.29409, supplement / serum: 50μM Thymidine + 50μM Hypoxanthine, base medium: RPMI + dialysed FBS	–	86.3
SW620 [1], log10 compound concentration (M): -9.29409, supplement / serum: 50μMThymidine, base medium: RPMI + dialysed FBS	–	105
SW620 [1], log10 compound concentration (M): -9.29409, supplement / serum: No metabolite, base medium: RPMI + dialysed FBS	–	84.9
SW620 [1], log10 compound concentration (M): -9.29409, supplement / serum: RPMI + Dialyzed FBS + 50μM Hypoxanthine, base medium: RPMI-1640	–	77.29
SW620 [1], log10 compound concentration (M): -9.29409, supplement / serum: RPMI + Dialyzed FBS, base medium: RPMI-1640	–	84.9
SW620 [1], log10 compound concentration (M): -9.29409, supplement / serum: RPMI + Normal FBS, base medium: RPMI-1640	–	77
SW620 [1], log10 compound concentration (M): -9.77121, supplement / serum: 50μM Hypoxanthine, base medium: RPMI + dialysed FBS	–	85.8
SW620 [1], log10 compound concentration (M): -9.77121, supplement / serum: 50μM Thymidine + 50μM Hypoxanthine, base medium: RPMI + dialysed FBS	–	86.4
SW620 [1], log10 compound concentration (M): -9.77121, supplement / serum: 50μMThymidine, base medium: RPMI + dialysed FBS	–	84.3
SW620 [1], log10 compound concentration (M): -9.77121, supplement / serum: No metabolite, base medium: RPMI + dialysed FBS	–	77
SW620 [1], log10 compound concentration (M): -9.77121, supplement / serum: RPMI + Dialyzed FBS + 50μM Hypoxanthine, base medium: RPMI-1640	–	85.8
SW620 [1], log10 compound concentration (M): -9.77121, supplement / serum: RPMI + Dialyzed FBS, base medium: RPMI-1640	–	77
SW620 [1], log10 compound concentration (M): -9.77121, supplement / serum: RPMI + Normal FBS, base medium: RPMI-1640	–	75.8
SW620 [2], HPLM (5% dFBS, 1% P/S), metabolite supplement: Vehicle	> 10000	–
SW620 [2], RPMI+GlutaMAX (5% FBS, 1% P/S), metabolite supplement: Vehicle	> 10000	–
SW620 [2], RPMI+GlutaMAX (5% dFBS, 1% P/S), metabolite supplement: 50 µM Hypoxanthine	> 10000	–
SW620 [2], RPMI+GlutaMAX (5% dFBS, 1% P/S), metabolite supplement: Vehicle	553	–
SW620 [2], RPMI+GlutaMAX (10% FBS, 1% P/S), metabolite supplement: Hypoxanthine	7050	–
SW620 [2], RPMI+GlutaMAX (10% FBS, 1% P/S), metabolite supplement: Sodium Formate	6170	–
SW620 [2], RPMI+GlutaMAX (10% FBS, 1% P/S), metabolite supplement: Thymidine	447	–
SW620 [2], RPMI+GlutaMAX (10% FBS, 1% P/S), metabolite supplement: Thymidine + Hypoxanthine	> 10000	–
SW620 [2], RPMI+GlutaMAX (10% FBS, 1% P/S), metabolite supplement: Thymidine + Sodium Formate	> 10000	–

Conditions	EC50 for viability [nM]
SW620 MTHFD2-/-	> 10000

EC50 for viability [nM]
Conditions	metabolite supplement: Adenine	metabolite supplement: Adenosine	metabolite supplement: Guanosine	metabolite supplement: Hypoxanthine	metabolite supplement: Sodium Formate	metabolite supplement: Thymidine	metabolite supplement: Thymidine + Sodium Formate	metabolite supplement: Vehicle
SW620 MTHFD2 -/-	–	–	–	–	> 10000	86.3	0.383	178
SW620 WT	> 10000	> 10000	2970	> 10000	–	1070	–	889

Source: the supplement of paper PMC10132981, “Formate overflow drives toxic folate trapping in MTHFD1 inhibited cancer cells” (Nature Metabolism, 2023)
